What was measured:
[1] = test system: LoVo; test: MTT colorimetric assay, LoVo cells; format: cell-based; settings: Homo sapiens, 72 h, 3 days of culturing, mean of six determinations, read-out: IC50 (μM) In Vitro Growth Inhibition
Procedure: The overall growth of human cancer cell lines was determined by means of the calorimetric MTT (3-[4,5-dimethylthiazol-2-yl]-diphenyl tetrazolium bromide; Sigma) assay, as detailed previously.

[2] = test system: P-glycoprotein; test: P-gp ATPase activity (P-gp Drug interaction Assay Kit); format: biochemical
Procedure: In order to test drug interaction with P-glucoprotein (herein-after referred as P-gp) we used an assay based on the study of modulation of ATPase activity from enriched P-gp membrane vesicle preparation (the following kit has been used: P-gp Drug interaction Assay Kit commercially available from SPI BIO France). P-gp ATPase activity was measured by a spectrophotometric method based on monitoring of ADP formation in the vesicle suspension medium. The basal ATPase activity was defined as the activity determined in the absence of any added drug. […]

[3] = test system: BFU-E; test: HALO hematotoxicity assay, mouse BFU-E; format: cell-based; settings: 5 days culture, iATP
Procedure: (§1) Investigation of the hematotoxic potential of UNBS5162 was undertaken by HemoGenix (Colorado Springs, Colo.). The effects of UNBS5162 on stem and progenitor cell populations from murine and human bone marrow were assessed using HALO (Hematopoietic/Hematotoxicity Assay through Luminescence Output) technology. Stem and hematopoietic progenitor cell populations were isolated from mouse and human bone marrow samples, plated at a concentration of 1.0×10^4 cells/well and cultured for 5 and 7 days, respectively, in the presence of growth factors and increasing concentrations of UNBS5162 ranging from 0.5 nM to 50 μM. The proliferative or growth potential of cell populations was determined from intracellular ATP (iATP) concentrations and a luciferin/luciferase bioluminescence signal detection system. All samples were assayed in eight replicates. The results are presented as estimated inhibitory concentration (IC) values.

[4] = test system: murine and human hematopoietic stem and progenitor cells; test: HALO hematotoxicity assay, overall statement; format: cell-based
Procedure: as §1

[5] = test system: ets homologous factor (EHF); test: EHF mRNA by quantitative RT-PCR, DU-145; format: cell-based, human
Procedure: Reverse transcription reactions were carried out in a thermal cycler (Thermocycler; Westburg, Leusden, The Netherlands). The purification of the cDNAs produced was undertaken using the High Pure PCR Product Purification Kit (Roche Diagnostics, Mannheim, Germany) in accordance with the manufacturer's instructions. Quantitative PCR reactions were performed with 50 ng of purified cDNA in a LightCycler thermocycler instrument (Roche Diagnostics) using LCFastart DNA Master SYBR Green 1 (Roche Diagnostics). After amplification, data analysis was carried out by means of the “Fit points” algorithm of the LightCycler quantification software. A standard curve enabled cDNA quantification of samples to be effected. The primers used were provided by Invitrogen and selected using the HYBSIMULATOR software (Advanced Gene Computing Technology, Irvine, Calif.). The primers used were as follows: ets homologous factor (EHF): forward: 5′-[…]-3′; reverse: 5′-CGAACTCTTGGAAAGGGA-3′; E2F1: forward: 5′-[…]-3′; reverse: 5′-GGATGTGGTTCTTGGACTT-3′.

[6] = test system: LC3-II; test: LC3-II immunoblot, DU-145; format: cell-based, human; settings: 10 μM
[7] = test system: PC-3 Human Prostate Cancer Cells; test: Affymetrix whole genome microarray, gene targets; settings: mRNA
Procedure: We performed a first experiment of evaluation of gene targets by means of Affymetrix whole genome microarray using human PC-3 cancer cells grown in vitro and treated with the compound of the invention (N-{2-[2-(dimethylamino)ethyl]-1,3-dioxo-2,3-dihydro-1H-benzo[de]isoquinolin-5-yl}urea) either one time at 1 μM or 10 μM, or 5 times a week (one time a day during five consecutive days) at 1 μM (Full genome analyses were performed at the VIB MicroArray Facility (UZ Gasthuisberg, Catholic University of Leuven, Belgium) using Affymetrix Human Genome U133 set Plus 2.0 (High Wycombe, United Kingdom).
Full genome-wide analyses were performed at the VIB MicroArray Facility (UZ Gasthuisberg, Catholic University of Leuven, Leuven, Belgium) using the Affymetrix Human Genome U133 set Plus 2.0 (High Wycombe, UK).
In addition to R, an open-source software environment for statistical computing, a set of functions called BioConductor was used for the analysis and comprehension of the genomic data. The quality controls in the Affymetrix microarray experiments were performed with the Simpleaffy package and agreed with Affymetrix guidelines. The background correction, expression quantification and normalization were performed using Robust Multichip Analysis. To select differentially expressed genes between two experimental conditions, probes for which no overlap occurred between intervals in the expression values obtained for each condition were first identified. The fold change between two experimental conditions was computed for each of these probes (without any value overlap) as the ratio between the two nearest unlog expression values observed for the two different conditions (i.e., the ratio closest to 1 between any two values from the two different conditions). Probes for which these ratios were above 2.0 or below 0.50 were then selected. The annotations of the genes finally selected in this way were retrieved from the Affymetrix Web site through the BioConductor package ghgu133plus2.h. […] This software package was then used to rank functional clusters by means of the statistical overrepresentation of individual genes in specific categories relative to all the genes in the same category on the microarray.

[8] = 1 μM once a day for five consecutive days

Question: With CN(C)CCN1C(=O)c2cccc3cc(NC(N)=O)cc(c23)C1=O [UNBS5162, N-{2-[2-(dimethylamino)ethyl]-1,3-dioxo-2,3-dihydro-1H-benzo[de]isoquinolin-5-yl}urea] as the compound, how does the IC50 [1] read?
Answer: 8.9 µM

Question: What about the “modulation of Pgp ATPase activity” value ([2]; 100 μM (data not shown)) of the same compound?
Answer: do not affect Pgp ATPase activity

Question: And the “modulation of basal P-gp ATPase activity” value ([2]; 2, 10, and 50 μM)?
Answer: does not affect ATPase activity

Question: And the IC50 ([3]; 120 h)?
Answer: 5.53 µM

Question: And the IC90 ([3]; 120 h)?
Answer: 9.11 µM

Question: And the IC75 [3]?
Answer: 7.03 µM

Question: And the “concentrations that were toxic (inhibited proliferation)” value [4]?
Answer: higher than 1 μM

Question: And the “EHF mRNA expression” value ([5]; 1 μM)?
Answer: markedly decreased EHF mRNA expression in a transient manner

Question: What about the “EHF mRNA levels” value ([5]; 10 μM, 72 hours after treatment) of the same compound?
Answer: marked sustained decrease in EHF mRNA levels

Question: What about the “LC3-II protein (marker of autophagy)” value [6] of the same compound?
Answer: induced the up-regulation of LC3-II protein

Question: What about the “ALDH1A3 Expression Level: 5 × 1 μM” value [7, 8] of the same compound?
Answer: 3.7

Question: What about the “ASNS Expression Level: 5 × 1 μM” value [7, 8] of the same compound?
Answer: 0.9

Question: And the “BCAT1 Expression Level: 5 × 1 μM” value [7, 8]?
Answer: 0.8

Question: What about the “CBS Expression Level: 5 × 1 μM” value [7, 8] of the same compound?
Answer: 1.0

Question: And the “CTH Expression Level: 5 × 1 μM” value [7, 8]?
Answer: 0.9

Question: What about the “H2BFS Expression Level: 5 × 1 μM” value [7, 8] of the same compound?
Answer: 0.5

Question: What about the “HIST1H2AC Expression Level: 5 × 1 μM” value [7, 8] of the same compound?
Answer: 0.2

Question: What about the “HIST1H2BC Expression Level: 5 × 1 μM” value [7, 8] of the same compound?
Answer: 0.7

Question: And the “HIST1H2BD Expression Level: 5 × 1 μM” value [7, 8]?
Answer: 0.3

Question: What about the “HIST1H2BG Expression Level: 5 × 1 μM” value [7, 8] of the same compound?
Answer: 0.5

Question: What about the “HIST1H2BK Expression Level: 5 × 1 μM” value [7, 8] of the same compound?
Answer: 0.3

Question: What about the “HIST1H3D Expression Level: 5 × 1 μM” value [7, 8] of the same compound?
Answer: 0.6

Question: And the “HIST1H3H Expression Level: 5 × 1 μM” value [7, 8]?
Answer: 0.6

Question: What about the “HIST2H2AA Expression Level: 5 × 1 μM” value [7, 8] of the same compound?
Answer: 0.5

Question: What about the “HIST2H2BE Expression Level: 5 × 1 μM” value [7, 8] of the same compound?
Answer: 0.3

Question: What about the “PHGDH Expression Level: 5 × 1 μM” value [7, 8] of the same compound?
Answer: 1.0

Question: What about the “SARS Expression Level: 5 × 1 μM” value [7, 8] of the same compound?
Answer: 0.9

Question: What about the “SAT Expression Level: 5 × 1 μM” value [7, 8] of the same compound?
Answer: 0.8

Question: And the “ALDH1A3 CT versus 1 μM” value ([7]; one time at 1 μM)?
Answer: 0.7

Question: And the “ASNS CT versus 1 μM” value ([7]; one time at 1 μM)?
Answer: 1.3

Question: And the “CBS CT versus 1 μM” value ([7]; one time at 1 μM)?
Answer: 1.0

Question: What about the “CTH CT versus 1 μM” value ([7]; one time at 1 μM) of the same compound?
Answer: 1.1

Question: What about the “H2AFY CT versus 1 μM” value ([7]; one time at 1 μM) of the same compound?
Answer: 1.7

Question: What about the “HIST1H2AC CT versus 1 μM” value ([7]; one time at 1 μM) of the same compound?
Answer: 1.0

Question: What about the “HIST1H3D CT versus 1 μM” value ([7]; one time at 1 μM) of the same compound?
Answer: 0.9

Question: What about the “PHGDH CT versus 1 μM” value ([7]; one time at 1 μM) of the same compound?
Answer: 1.4

Question: What about the “SARS CT versus 1 μM” value ([7]; one time at 1 μM) of the same compound?
Answer: 1.0

Question: And the “SAT CT versus 1 μM” value ([7]; one time at 1 μM)?
Answer: 1.1

Question: What about the “ALDH1A3 Expression Level: 10 μM” value ([7]; one time at 10 μM) of the same compound?
Answer: 2.3

Question: And the “ASNS Expression Level: 10 μM” value ([7]; one time at 10 μM)?
Answer: 3.6

Question: What about the “BCAT1 Expression Level: 10 μM” value ([7]; one time at 10 μM) of the same compound?
Answer: 2.1

Question: What about the “CBS Expression Level: 10 μM” value ([7]; one time at 10 μM) of the same compound?
Answer: 2.2

Question: What about the “CTH Expression Level: 10 μM” value ([7]; one time at 10 μM) of the same compound?
Answer: 2.0

Question: What about the “H2AFY Expression Level: 10 μM” value ([7]; one time at 10 μM) of the same compound?
Answer: 2.6

Question: And the “H2BFS Expression Level: 10 μM” value ([7]; one time at 10 μM)?
Answer: 0.5

Question: What about the “HIST1H2AC Expression Level: 10 μM” value ([7]; one time at 10 μM) of the same compound?
Answer: 0.4

Question: And the “HIST1H2BC Expression Level: 10 μM” value ([7]; one time at 10 μM)?
Answer: 0.4

Question: What about the “HIST1H2BD Expression Level: 10 μM” value ([7]; one time at 10 μM) of the same compound?
Answer: 0.3

Question: And the “HIST1H2BG Expression Level: 10 μM” value ([7]; one time at 10 μM)?
Answer: 0.4

Question: What about the “HIST1H2BK Expression Level: 10 μM” value ([7]; one time at 10 μM) of the same compound?
Answer: 0.5

Question: What about the “HIST1H3D Expression Level: 10 μM” value ([7]; one time at 10 μM) of the same compound?
Answer: 0.4

Question: What about the “HIST1H3H Expression Level: 10 μM” value ([7]; one time at 10 μM) of the same compound?
Answer: 0.3

Question: What about the “HIST2H2AA Expression Level: 10 μM” value ([7]; one time at 10 μM) of the same compound?
Answer: 0.4

Question: And the “HIST2H2BE Expression Level: 10 μM” value ([7]; one time at 10 μM)?
Answer: 0.5

Question: And the “PHGDH Expression Level: 10 μM” value ([7]; one time at 10 μM)?
Answer: 2.4

Question: What about the “SARS Expression Level: 10 μM” value ([7]; one time at 10 μM) of the same compound?
Answer: 2.6

Question: What about the “SAT Expression Level: 10 μM” value ([7]; one time at 10 μM) of the same compound?
Answer: 0.5
